The structures appear in SMILES notation. Where “and” joins values, the source holds several entries; their conditions need not be identical. Equal values may be shown once.

A short description of the data set: solvent given as SMILES.

For `Cc1c2ccc(=[N+]3CCCCC3)cc-2oc2cc(N3CCCCC3)ccc12`, the absorption maximum (in ClCCl) amounted to 555 nm.
Take `CN(C)c1ccc2c(-c3cc(C(=O)[O-])ccc3C(=O)[O-])c3ccc(=[N+](C)C)cc-3oc2c1`: the absorption maximum is 538 nm (in CCO) and 549 nm (in O).
For `CCOC(=O)c1c(-c2c(Cl)c3cc(C)ccc3oc2=O)nn(-c2cccc(Cl)c2)c1C(=O)OCC`, the absorption maximum (in ClCCl) is on record as 331 nm.
Under “in c1ccccc1”, `O=c1oc2ccc3ccc(O)cc3c2nc1-c1ccccc1` displayed an absorption maximum of 406 nm.
`CCC1(CC)c2cc(B(c3c(C)cc(C)cc3C)c3c(C)cc(C)cc3C)ccc2-c2c1c1c(c3c2C(CC)(CC)c2cc(B(c4c(C)cc(C)cc4C)c4c(C)cc(C)cc4C)ccc2-3)C(CC)(CC)c2cc(B(c3c(C)cc(C)cc3C)c3c(C)cc(C)cc3C)ccc2-1` showed an absorption maximum (in C1CCOC1) of 362 nm; an absorption maximum (in CC#N) of 359 nm; an absorption maximum (in CC(C)=O) of 360 nm; an absorption maximum (in CCCCCC) of 362 nm; an absorption maximum (in Cc1ccccc1) of 364 nm.
For `COc1ccccc1C1=NC2c3cccc4cccc(c34)C2N1c1ccccc1` (stereo unspecified), where the note is “in Cc1ccccc1”, the absorption maximum stood at 312 nm.
Where the note is “in ClCCl”, `CC1=C(c2ccccc2)C(C)=[N+]2C1=C(c1c(-c3ccccn3)nc3ccccn13)c1c(C)cc(C)n1[B-]2(F)F` registered an absorption maximum of 532 nm.
For the setting “in ClC(Cl)Cl”, `CC(=O)OCCN1C(=O)c2cccc3c(Oc4ccc(C#N)cc4)ccc(c23)C1=O` displayed an absorption maximum of 351 nm.
Regarding `COCCC1=Cc2nc1ccc1[nH]c(cc1CCOC)c1nc(ccc3[nH]c2cc3CCOC)C(CCOC)=C1`, under “in Cc1ccccc1”, the absorption maximum was 638 nm.
Consider `CCC/N=C/c1cc2ccc(N(C)C)cc2cc1OC`, for which the absorption maximum runs as follows: (in C1CCOC1) 369 nm; (in CC#N) 369 nm; (in CC(C)O) 450 nm; (in CCOC(C)=O) 369 nm; (in CN(C)C=O) 374 nm; (in CS(C)=O) 376 nm. Further, the absorption maximum worked out at 369 nm (in Cc1ccccc1), 368 nm (in ClCCl) and 438 nm (in O).
In turn, `CC(C)CN1C(=O)/C(=C/c2ccc([N+](=O)[O-])cc2)C=C1c1ccccc1` displayed an absorption maximum (in C1COCCO1) of 456 nm.
`C(=C\c1ncc(-c2ccc(OCc3ccccc3)c(OCc3ccccc3)c2)o1)/c1cccc(N2CCN(c3ccccc3)CC2)c1` returned an absorption maximum (in ClCCl) of 355 nm.
Turning to `COc1ccc(C2=C(c3ccc(OC)cc3)C(C)(C)c3ccccc32)cc1`, the absorption maximum (in C1CCCCC1) stood at 283 nm.
In the case of `O=P1(c2ccccc2)C(c2ccsc2)=C(c2ccsc2)c2ccccc21` (stereo unspecified), the absorption maximum (in C1CCOC1) was determined as 355 nm.
`CCn1c(-c2ccc(-c3ccc4c(c3)C3(c5ccccc5-c5ccccc53)c3ccccc3-4)cc2)c(-c2ccc3ccccc3c2)c(-c2ccc3ccccc3c2)c1-c1ccc(-c2ccc3c(c2)C2(c4ccccc4-c4ccccc42)c2ccccc2-3)cc1` had an absorption maximum (in CCOC(C)=O) of 326 nm.
Take `CC(C)[Si](C#Cc1c2nc3ccccc3nc2c(C#C[Si](C(C)C)(C(C)C)C(C)C)c2nc3ccccc3nc12)(C(C)C)C(C)C`: the absorption maximum (in CCCCCC) is 681 nm.
In turn, `CCC1=C(C2=C(C3=C(CC)S(=O)(=O)c4cc(-c5ccc(CO)cc5)ccc43)C(F)(F)C(F)(F)C2(F)F)c2ccc(-c3ccc(CO)cc3)cc2S1(=O)=O` returned an absorption maximum (in C1COCCO1) of 340 nm.
Turning to `CCCCCCOc1cc(C=C2c3ccccc3-c3ccccc32)c(OCCCCCC)cc1C=C1c2ccccc2C=Cc2ccccc21`, the absorption maximum (in C1CCOC1) was determined as 397 nm.
Molecule `F[B-]1(F)n2c(-c3ccccc3)cnc2-c2cccc[n+]21` showed an absorption maximum (in C1CCCCC1) of 412 nm; an absorption maximum (in C1CCOC1) of 394 nm; an absorption maximum (in C1COCCO1) of 394 nm; an absorption maximum (in CC#N) of 384 nm; an absorption maximum (in CCCCCC) of 412 nm; an absorption maximum (in CO) of 382 nm. The absorption maximum (in ClC(Cl)Cl) was 369 nm.
As to `Cc1ccc2c(c1)NC(=O)CC(=O)N2`, where the note is “in CS(C)=O”, the absorption maximum was determined as 294 nm.
As to `COc1ccc(C(=O)OCc2ccc3c4cccc5cccc(c6cccc2c63)c54)cc1`, under “in CCO”, the absorption maximum amounted to 439 nm.
Turning to `CC(C)(C)c1ccc(Oc2cc3c4c(cc(Oc5ccc(C(C)(C)C)cc5)c5c6c(Oc7ccc(C(C)(C)C)cc7)cc7c8c(cc(Oc9ccc(C(C)(C)C)cc9)c(c2c45)c86)C(=O)N(c2ccccc2)C7=O)C(=O)N(c2ccccc2)C3=O)cc1`, for the setting “in ClC(Cl)Cl”, the absorption maximum stood at 586 nm.
`CC(C)(C)c1ccc2ccc3cc(-c4ccc5c(-c6ccc7c(ccc8ccc(C(C)(C)C)cc87)c6)cc6c7cc(-c8ccc9c(ccc%10ccc(C(C)(C)C)cc%109)c8)ccc7c(-c7ccc8c(ccc9ccc(C(C)(C)C)cc98)c7)cc6c5c4)ccc3c2c1` registered an absorption maximum (in ClCCl) of 303 nm.
The molecule `CC(C)[Si](C#CC1=CC2=c3cc(C#C[Si](C(C)C)(C(C)C)C(C)C)c4nc(C(F)(F)C(F)(F)C(F)(F)F)nc5c(C#C[Si](C(C)C)(C(C)C)C(C)C)cc(c3c54)C3=CC(C#C[Si](C(C)C)(C(C)C)C(C)C)=C4N=C(C(F)(F)C(F)(F)C(F)(F)F)N=C1C4C32)(C(C)C)C(C)C` (stereo unspecified) came in with an absorption maximum (in C1CCOC1) of 516 nm.
For the molecule `CN(C)c1cccc2c1ccc1c(=O)oc(-c3ccc(C(F)(F)F)cc3)cc12`, the absorption maximum stood at 392 nm (in CC(C)=O); 395 nm (in CCCCCCCCO); 394 nm (in CCCCO); 393 nm (in CCCO); 393 nm (in CCO); 393 nm (in CCOC(C)=O). In addition, the absorption maximum reads like this: (in CN(C)C=O) 395 nm; (in CO) 391 nm; (in ClC(Cl)Cl) 395 nm.
`COc1cc(C(=O)O)ccc1O` came in with an absorption maximum (in C1CCCCC1) of 287.2 nm; an absorption maximum (in C1COCCO1) of 290 nm; an absorption maximum (in CC#N) of 290 nm; an absorption maximum (in CC(C)(C)O) of 291 nm; an absorption maximum (in CC(C)CO) of 292.4 nm; an absorption maximum (in CC(C)O) of 291.6 nm. The absorption maximum is 290.5 nm (in CCOC(C)=O); 293.6 nm (in CO); 285 nm and 283.2 nm (in O).
Turning to `Cc1ccc2occ(CC(=O)NN)c2c1`, the absorption maximum reads like this: (in C1CCOC1) 292 nm; (in CC#N) 289 nm; (in CC(C)=O) 293 nm; (in CCCCO) 290 nm; (in CCCO) 281 nm; (in CCO) 283 nm. For the same molecule, the absorption maximum runs as follows: (in CCOC(C)=O) 296 nm; (in CN(C)C=O) 313 nm; (in CO) 279 nm; (in ClCCl) 284 nm.
In turn, `F[B-]1(F)n2c(c(Sc3ccccc3)c3c2-c2ccccc2CC3)C=C2C(Sc3ccccc3)=C3CCc4ccccc4C3=[N+]21` gave an absorption maximum (in CC#N) of 640 nm.
Under “in O”, `CC1(C)C(=O)C=Cc2ccc(N3CCC3)cc21` gave an absorption maximum of 387 nm.
Where the note is “in C1CCOC1”, `Cc1ccc(C2=C3C=CC(Sc4ccccc4)=[N+]3[B-](F)(F)n3c(Sc4ccccc4)ccc32)cc1` showed an absorption maximum of 577 nm.
The molecule `Cc1cc(C)c(C2=C3C=CC=[N+]3[B-]3(F)Oc4cc(O)cc5c6ccc(C)cc6c6cc2n3c6c45)c(C)c1` (stereo unspecified) had an absorption maximum (in ClC(Cl)Cl) of 629 nm.
As to `CCN(CC)c1ccc2c(c1)oc(=O)c1c(=O)oc3c(C)c4oc(=O)c5c(=O)oc6cc(N(CC)CC)ccc6c5c4cc3c12`, the absorption maximum by setting is: (in CS(C)=O) 463 nm; (in ClCCl) 458 nm.
With `CN(C)c1ccc(C#Cc2ccc3ccc4c(C#Cc5ccc(N(C)C)cc5)ccc5ccc2c3c54)cc1`, the absorption maximum runs as follows: (in C1COCCO1) 430 nm; (in CC(C)=O) 447 nm; (in CCCCCC) 439 nm; (in CCCCCCO) 430 nm; (in CCO) 431 nm; (in CCOC(C)=O) 431 nm. The absorption maximum is, setting by setting: (in CO) 436 nm; (in Cc1ccccc1) 433 nm; (in ClCCl) 439 nm.
In the case of `CC(C)c1cccc(C(C)C)c1-n1c(=O)c2cc3nc(-c4ccccc4)c4cc5c(=O)n(-c6c(C(C)C)cccc6C(C)C)c(=O)c6cc7nc(-c8ccccc8)c8cc(c1=O)c2c1c3c4c(c65)c7c81`, the absorption maximum (in ClC(Cl)Cl) came out at 488 nm.
For the setting “in CO”, `COc1ccc(-c2nc(-c3ccccc3)c(-c3ccccc3)[nH]2)cc1` registered an absorption maximum of 305 nm.
As to `COc1ccc(/C=C/C2=CC(/C=C/c3ccc(OC)c4ccccc34)=[O+][B-](F)(F)O2)c2ccccc12`, the absorption maximum (in CC#N) is listed as 530 nm; the absorption maximum (in CC(C)=O) came to 532 nm; the absorption maximum (in CCOC(C)=O) is reported as 524 nm; the absorption maximum (in CCOCC) came to 516 nm; the absorption maximum (in ClC(Cl)(Cl)Cl) is 523 nm; the absorption maximum (in ClCCl) is 536 nm.
Turning to `N#CC(C#N)=C(/C=C/c1cn(-c2ccccc2)nc1-c1ccccc1)c1ccccc1`, the absorption maximum reads like this: (in C1CCOC1) 402 nm; (in C1COCCO1) 399 nm; (in CCO) 402 nm; (in CCOC(C)=O) 399 nm; (in CN(C)C=O) 405 nm; (in CO) 397 nm. Moreover, the absorption maximum came to 409 nm (in CS(C)=O), 405 nm (in Cc1ccccc1), 406 nm (in ClC(Cl)Cl) and 403 nm (in ClCCl).
Regarding `Nc1n[n+]([O-])c2ccccc2[n+]1[O-]`, the absorption maximum by setting is: (in CC#N) 477 nm; (in O) 457 nm.
As to `F[Si-](F)(c1ccccc1)(c1c2ccccc2cc2ccccc12)c1c2ccccc2cc2ccccc12`, the absorption maximum (in C1CCOC1) came out at 391 nm.
With `O=Cc1ccc2ccc3cccc4ccc1c2c34`, the absorption maximum amounted to 391 nm (in C1CCOC1); 390 nm (in CC#N); 387 nm (in CCCCCC); 389 nm (in CCO); 390 nm (in CN(C)C=O); 389 nm (in CO). For the same molecule, the absorption maximum reads like this: (in Cc1ccccc1) 391 nm; (in ClCCl) 392 nm.
`C1=Cc2ccc3ccccc3c2NB1c1ccccc1` registered an absorption maximum (in C1CCCCC1) of 360 nm.

The record behind these values is the Deep4Chem optical property database.
